Experimental data reported in patent publication US11566007B2, “Ras inhibitors” (Revolution Medicines, Inc., priority 2019, dated 2023).
Read-outs that look alike come from different tables or passages of the source.

Tests used:
Format in all cases: biochemical
[1] = target: NRAS WT (Homo sapiens (Human), UniProt P01111+P62937); assay: Ras-Raf (BRAF RBD) disruption / FRET / MOA assay, NRAS WT
In short: (§1)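 Compounds (30 μM top final, 10-point 3-fold dilutions) incubated 3 h at 25° C with nucleotide-loaded Ras, cyclophilin A and BRAF RBD. Detection with 10 nM anti-His Eu-W1024 and 50 nM anti-GST allophycocyanin over another 1.5 h. Lowered TR-FRET ratio relative to DMSO wells gives IC50.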

[2] = target: K-Ras G12C (Homo sapiens (Human), UniProt P01116+P62937, G12C); assay: Ras-Raf (BRAF RBD) disruption / FRET / MOA assay, KRAS G12C; conditions: KRAS G12C, Ras-Raf disruption/FRET/MOA assay
K-Ras G12C, sequence (P01116-2 other isoform, or with tags, fused parts or gaps G12C): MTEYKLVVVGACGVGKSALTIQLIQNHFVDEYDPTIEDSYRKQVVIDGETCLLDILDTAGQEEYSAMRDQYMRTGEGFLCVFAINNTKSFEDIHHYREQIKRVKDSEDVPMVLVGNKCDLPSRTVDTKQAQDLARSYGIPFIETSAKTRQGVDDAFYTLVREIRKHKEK
K-Ras G12C, sequence (P62937 whole entry): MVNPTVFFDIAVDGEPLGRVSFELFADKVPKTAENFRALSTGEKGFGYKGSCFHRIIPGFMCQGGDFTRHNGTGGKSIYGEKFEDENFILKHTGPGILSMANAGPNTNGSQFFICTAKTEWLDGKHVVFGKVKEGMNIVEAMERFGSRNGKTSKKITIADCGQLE
In short: (§2)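 Compound-driven ternary complex of nucleotide-loaded Ras with cyclophilin A, disrupting BRAF RBD binding. 10-point 3-fold dilution from 30 μM final, 3 h at 25° C, then anti-His Eu-W1024 (10 nM) and anti-GST allophycocyanin (50 nM) for 1.5 h. IC50 from TR-FRET ratio decrease versus DMSO.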

[3] = target: KRAS G12V (Homo sapiens (Human), UniProt P01116+P62937, G12V); assay: Ras-Raf (BRAF RBD) disruption / FRET / MOA assay, KRAS G12V; conditions: read-out: IC50* KRAS G12V FRET data
KRAS G12V, sequence (P01116-2 other isoform, or with tags, fused parts or gaps G12V): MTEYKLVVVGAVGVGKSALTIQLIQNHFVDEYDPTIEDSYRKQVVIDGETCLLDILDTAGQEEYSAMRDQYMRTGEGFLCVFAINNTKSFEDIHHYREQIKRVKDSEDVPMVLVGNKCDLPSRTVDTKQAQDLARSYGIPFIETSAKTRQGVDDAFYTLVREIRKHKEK
KRAS G12V, sequence (P62937 whole entry): as the sequence (P62937 whole entry) above
In short: as §2

[4] = target: NRAS Q61K (Homo sapiens (Human), UniProt P01111+P62937, Q61K); assay: Ras-Raf (BRAF RBD) disruption / FRET / MOA assay, NRAS Q61K
NRAS Q61K, sequence (P01111 whole entry Q61K): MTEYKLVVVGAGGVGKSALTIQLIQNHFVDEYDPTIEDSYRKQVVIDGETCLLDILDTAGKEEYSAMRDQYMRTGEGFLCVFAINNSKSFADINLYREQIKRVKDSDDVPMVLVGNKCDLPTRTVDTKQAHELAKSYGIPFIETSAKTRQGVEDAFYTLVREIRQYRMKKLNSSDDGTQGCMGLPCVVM
NRAS Q61K, sequence (P62937 whole entry): as the sequence (P62937 whole entry) above
In short: as §1

[5] = target: KRAS G12S (Homo sapiens (Human), UniProt P01116+P62937, G12S); assay: Ras-Raf (BRAF RBD) disruption / FRET / MOA assay, KRAS G12S; conditions: Ras-Raf disruption/FRET/MOA assay; class symbols; read-out: KRAS G12S FRET data IC50
KRAS G12S, sequence (P01116-2 other isoform, or with tags, fused parts or gaps G12S): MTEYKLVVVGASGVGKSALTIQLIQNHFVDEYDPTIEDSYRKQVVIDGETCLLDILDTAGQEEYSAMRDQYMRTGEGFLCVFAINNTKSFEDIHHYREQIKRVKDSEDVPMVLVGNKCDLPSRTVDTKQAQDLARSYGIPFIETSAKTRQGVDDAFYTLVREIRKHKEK
KRAS G12S, sequence (P62937 whole entry): as the sequence (P62937 whole entry) above
In short: as §2

[6] = target: KRAS G13D (Homo sapiens (Human), UniProt P01116+P62937, G13D); assay: Ras-Raf (BRAF RBD) disruption / FRET / MOA assay, KRAS G13D
KRAS G13D, sequence (P01116-2 other isoform, or with tags, fused parts or gaps G13D): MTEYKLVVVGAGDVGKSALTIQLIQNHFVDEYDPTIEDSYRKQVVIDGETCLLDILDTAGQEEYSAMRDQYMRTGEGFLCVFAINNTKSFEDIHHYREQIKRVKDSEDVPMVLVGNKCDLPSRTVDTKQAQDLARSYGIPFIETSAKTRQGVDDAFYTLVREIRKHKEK
KRAS G13D, sequence (P62937 whole entry): as the sequence (P62937 whole entry) above
In short: as §2

[7] = target: KRAS Q61H (Homo sapiens (Human), UniProt P01116+P62937, Q61H); assay: Ras-Raf (BRAF RBD) disruption / FRET / MOA assay, KRAS Q61H; conditions: class symbols
KRAS Q61H, sequence (P01116-2 other isoform, or with tags, fused parts or gaps Q61H): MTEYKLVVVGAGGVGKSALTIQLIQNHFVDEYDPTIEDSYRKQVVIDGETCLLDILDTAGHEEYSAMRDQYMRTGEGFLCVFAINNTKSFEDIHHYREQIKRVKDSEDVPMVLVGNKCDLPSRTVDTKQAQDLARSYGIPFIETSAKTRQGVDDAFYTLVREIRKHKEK
KRAS Q61H, sequence (P62937 whole entry): as the sequence (P62937 whole entry) above
In short: as §1

[8] = target: KRAS G12D (Homo sapiens (Human), UniProt P01116+P62937, G12D); assay: Ras-Raf (BRAF RBD) disruption / FRET / MOA assay, KRAS G12D; conditions: Ras-Raf disruption/FRET/MOA assay; class symbols; read-out: KRAS G12D FRET data IC50
KRAS G12D, sequence (P01116-2 other isoform, or with tags, fused parts or gaps G12D): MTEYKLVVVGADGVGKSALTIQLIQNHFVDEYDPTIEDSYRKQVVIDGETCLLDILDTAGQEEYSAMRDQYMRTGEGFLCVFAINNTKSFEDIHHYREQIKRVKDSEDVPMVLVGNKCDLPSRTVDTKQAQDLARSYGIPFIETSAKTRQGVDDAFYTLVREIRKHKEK
KRAS G12D, sequence (P62937 whole entry): as the sequence (P62937 whole entry) above
In short: as §2

[9] = target: NRAS G12C (Homo sapiens (Human), UniProt P01111+P62937, G12C); assay: Ras-Raf (BRAF RBD) disruption / FRET / MOA assay, NRAS G12C
NRAS G12C, sequence (P01111 whole entry G12C): as the sequence (P01111 whole entry Q61K) above, with G12C, K61Q counted along it
NRAS G12C, sequence (P62937 whole entry): as the sequence (P62937 whole entry) above
In short: as §2

[10] = read-out: IC50* NRAS WT FRET data
[11] = read-out: IC50* KRAS G12C FRET data
[12] = NRAS Q61K, Ras-Raf disruption/FRET/MOA assay, read-out: IC50* NRAS Q61K FRET data
[13] = read-out: IC50* KRAS G13D FRET data
[14] = Ras-Raf disruption/FRET/MOA assay, read-out: KRAS Q61H FRET data IC50
[15] = read-out: IC50* NRAS G12C FRET data

NRAS WT, sequence (P01111 whole entry): as the sequence (P01111 whole entry Q61K) above, with K61Q counted along it
NRAS WT, sequence (P62937 whole entry): as the sequence (P62937 whole entry) above

SMILES	IC50 [1, 10]	IC50 [2, 11]	IC50 [3]	IC50 [4, 12]	IC50 [5]	IC50 [6, 13]	IC50 [7, 14]	IC50 [8]	IC50 [9, 15]	IC50 ([1]; IC50* NRAS WT FRET data)	IC50 ([2]; IC50* KRAS G12C FRET data)	IC50 [4]	IC50 ([6]; IC50* KRAS G13D FRET data)	IC50 ([7]; KRAS Q61H FRET data IC50, Ras-Raf disruption/FRET/MOA assay)	IC50 ([9]; IC50* NRAS G12C FRET data)
C=CC(=O)N1CC[C@H](C(=O)N2CCCCC[C@H]2C(=O)N[C@H]2Cc3cccc(c3)-c3ccc4c(c3)c(c(-c3cccnc3[C@H](C)OC)n4CC)CC(C)(C)COC(=O)[C@@H]3CCCN(N3)C2=O)C1 (atropisomer, axis not shown) [Example A496]	1000 to 10000 nM	1000 to 10000 nM	> 10000 nM	1000 to 10000 nM	> 10000 nM	> 10000 nM	1000 to 10000 nM	> 10000 nM	1000 to 10000 nM	–	–	–	–	–	–
CCn1c(-c2cccnc2[C@H](C)OC)c2c3cc(ccc31)-c1cccc(c1)C[C@H](NC(=O)[C@H](C(C)C)N1CC[C@]3(CCN(C(=O)C#CC(C)(C)N(C)C)C3)C1=O)C(=O)N1CCC[C@H](N1)C(=O)OCC(C)(C)C2 (atropisomer, axis not shown) [Example A534, (2S)-2-((S)-7-(4-(dimethylamino)-4-methylpent-2-ynoyl)-1-oxo-2,7-diazaspiro[4.4]nonan-2-yl)-N-((6^3S,4S)-1^1-ethyl-1^2-(2-((S)-1-methoxyethyl)pyridin-3-yl)-10,10-dimethyl-5,7-dioxo-6^1,6^2,6^3,6^4,6^5,6^6-hexahydro-1^1H-8-oxa-1(5,3)-indola-6(1,3)-pyridazina-2(1,3)-benzenacycloundecaphane-4-yl)-3-methylbutanamide]	1000 to 10000 nM	< 10 nM	1000 to 10000 nM	1000 to 10000 nM	1000 to 10000 nM	1000 to 10000 nM	100 to 1000 nM	1000 to 10000 nM	< 10 nM	–	–	–	–	–	–
C=CC(=O)N1CC[C@H]2[C@@H]1CN2C(=O)N(C)[C@H](C(=O)N[C@H]1Cc2nc(cs2)-c2ccc3c(c2)c(c(-c2cccnc2[C@H](C)OC)n3CC)CC(C)(C)COC(=O)[C@@H]2CCCN(N2)C1=O)C(C)C (atropisomer, axis not shown) [Example A547]	100 to 1000 nM	100 to 1000 nM	1000 to 10000 nM	100 to 1000 nM	1000 to 10000 nM	1000 to 10000 nM	100 to 1000 nM	1000 to 10000 nM	100 to 1000 nM	–	–	–	–	–	–
CCn1c(-c2cccnc2[C@H](C)OC)c2c3cc(ccc31)-c1cccc(c1)C[C@H](NC(=O)[C@H](C(C)C)N1CC[C@@]3(CCN(C(=O)C#C[C@@H]4COCCN4C)C3)C1=O)C(=O)N1CCC[C@H](N1)C(=O)OCC(C)(C)C2 (atropisomer, axis not shown) [Example A549]	–	–	1000 to 10000 nM	–	1000 to 10000 nM	–	–	> 10000 nM	–	1000 to 10000 nM	< 10 nM	1000 to 10000 nM	1000 to 10000 nM	100 to 1000 nM	10 to 100 nM
CCn1c(-c2cccnc2[C@H](C)OC)c2c3cc(ccc31)-c1cccc(c1)C[C@H](NC(=O)[C@H](C(C)C)N1CC[C@]3(CCN(C(=O)C#C[C@@]4(N(C)C)CCOC4)C3)C1=O)C(=O)N1CCC[C@H](N1)C(=O)OCC(C)(C)C2 (atropisomer, axis not shown) [Example A560]	1000 to 10000 nM	10 to 100 nM	1000 to 10000 nM	1000 to 10000 nM	100 to 1000 nM	1000 to 10000 nM	100 to 1000 nM	1000 to 10000 nM	10 to 100 nM	–	–	–	–	–	–
C=CC(=O)N1C[C@@H]2CN(C(=O)N(C)[C@H](C(=O)N[C@H]3Cc4nc(cs4)-c4ccc5c(c4)c(c(-c4cccnc4[C@H](C)OC)n5CC)CC(C)(C)COC(=O)[C@@H]4CCCN(N4)C3=O)C(C)C)[C@@H]2C1 (atropisomer, axis not shown) [Example A561]	1000 to 10000 nM	100 to 1000 nM	1000 to 10000 nM	100 to 1000 nM	1000 to 10000 nM	1000 to 10000 nM	100 to 1000 nM	1000 to 10000 nM	100 to 1000 nM	–	–	–	–	–	–
C=CC(=O)N1CCO[C@H]2CN(C(=O)N(C)[C@H](C(=O)N[C@H]3CC4=NN=C(O4)c4ccc5c(c4)c(c(-c4cccnc4[C@H](C)OC)n5CC(F)(F)F)CC(C)(C)COC(=O)[C@@H]4CCCN(N4)C3=O)C(C)C)C[C@H]21 (atropisomer, axis not shown) [Example A576]	1000 to 10000 nM	100 to 1000 nM	> 10000 nM	1000 to 10000 nM	> 10000 nM	> 10000 nM	1000 to 10000 nM	> 10000 nM	100 to 1000 nM	–	–	–	–	–	–
CO[C@@H](C)c1ncccc1-c1c2c3cc(ccc3n1CC(F)(F)F)-c1nc(co1)C[C@H](NC(=O)[C@H](C(C)C)N(C)C(=O)C1(F)CCN(C(=O)C#CC(C)(C)N(C)C)CC1)C(=O)N1CCC[C@H](N1)C(=O)OCC(C)(C)C2 (atropisomer, axis not shown) [Example A578]	100 to 1000 nM	< 10 nM	100 to 1000 nM	100 to 1000 nM	100 to 1000 nM	100 to 1000 nM	10 to 100 nM	100 to 1000 nM	< 10 nM	–	–	–	–	–	–
CCn1c(-c2cccnc2[C@H](C)OC)c2c3cc(ccc31)-c1cccc(c1)C[C@H](NC(=O)[C@@H](CO[C@H]1CCN(C(=O)C#CC(C)(C)N(C)C)C1)C(C)C)C(=O)N1CCC[C@H](N1)C(=O)OCC(C)(C)C2 (atropisomer, axis not shown) [Example A585]	1000 to 10000 nM	10 to 100 nM	1000 to 10000 nM	> 10000 nM	1000 to 10000 nM	> 10000 nM	1000 to 10000 nM	> 10000 nM	10 to 100 nM	–	–	–	–	–	–
CCn1c(-c2cccnc2[C@H](C)OC)c2c3cc(ccc31)C1=CCCN(C1)C[C@H](NC(=O)[C@H](C(C)C)N(C)C(=O)C1(F)CCN(C(=O)C#CC(C)(C)N(C)C)CC1)C(=O)N1CCC[C@H](N1)C(=O)OCC(C)(C)C2 (atropisomer, axis not shown) [Example A591]	100 to 1000 nM	< 10 nM	100 to 1000 nM	1000 to 10000 nM	100 to 1000 nM	100 to 1000 nM	100 to 1000 nM	1000 to 10000 nM	< 10 nM	–	–	–	–	–	–
CCn1c(-c2cccnc2[C@H](C)OC)c2c3cc(ccc31)-c1cccc(c1)C[C@H](NC(=O)[C@@H](COC1CN(C(=O)C#CC(C)(C)N(C)C(C)C)C1)C(C)C)C(=O)N1CCC[C@H](N1)C(=O)OCC(C)(C)C2 (atropisomer, axis not shown) [Example A599]	> 10000 nM	< 10 nM	1000 to 10000 nM	> 10000 nM	> 10000 nM	> 10000 nM	> 10000 nM	> 10000 nM	10 to 100 nM	–	–	–	–	–	–
CO[C@@H](C)c1ncccc1-c1c2c3cc(ccc3n1CC(F)(F)F)-c1cccc(c1)CN(NC(=O)[C@@H](COC1CN(C(=O)C#CC(C)(C)N(C)C)C1)C(C)C)C(=O)N1CCC[C@H](N1)C(=O)OCC(C)(C)C2 (atropisomer, axis not shown) [Example A601]	1000 to 10000 nM	< 10 nM	1000 to 10000 nM	1000 to 10000 nM	1000 to 10000 nM	1000 to 10000 nM	1000 to 10000 nM	> 10000 nM	< 10 nM	–	–	–	–	–	–
